Measured values published in patent US20240120053A1, “5-HT RECEPTOR AGONIST TITRATION” (Diamond Therapeutics Inc., priority 2021, published 2024).
Entries after “also recorded” stand apart in the source; their conditions may differ.

Columns and labels:
[1] = system: out-bred Long Evans rats; assay: Progressive ratio (PR) test of motivation; format: in vivo
Protocol: (§1) Experiments were conducted to test psilocybin doses in the range of 0.05-0.2 mg/kg psilocybin administered S.C. across progressive ratio (PR) and 5-choice serial reaction time task (5CSRTT) to examine the effect of psilocybin on endophenotypes of motivation and attention. In each study, a population of out-bred Long Evans rats was first tested as a group for response to the PR and 5CSRTT. Each group was then divided into sub-groups by tertiles according to performance, and then exposed to various dose levels immediately prior to re-testing at various psilocybin dose levels.
The PR test is used to answer how willing the test subject is to work for food (i.e. test of motivation). A single 45 mg food pellet (i.e. reinforcer) is made available to the test animal based on lever press response. To obtain each successive pellet, the animal must make increasingly more lever presses. Typically, a progression of 2, 4, 6, 9, 12, 15, 20, 25, 32, 40, 50, 62, 77, 95, 118, etc. is used, derived from the equation:
ratio=[5×e^(0.2×reinforcer#)−5]
At some point, the animal gives up as the motor demands to obtain a single pellet are not deemed worthwhile (i.e. animal reaches“break point” defined as animal's failure to earn a food pellet in 20 minutes).
Rats were then sub-grouped into tertiles based on the number of lever presses for food at baseline, so that within the test population of 36 animals, 12 animals were identified as low responders, characterized by low motivation and potentially corresponding to low motivation endophenotype representative of clinical depression. Twelve animals were identified as high responders. There was a statistically significant difference between the high and low responders. […] This represents a motivational enhancing effect of psilocybin in the cohort corresponding to a low motivation endophenotype representative of clinical depression.

[2] = system: mice; assay: Ongoing spectral power (qEEG, power spectral density) over daily recording sessions; format: in vivo; settings: ascending low, medium, high dose (FIG. 7A-8B)
Protocol: (§2) Fourteen mice with a history of testing with scopolamine and memantine, containing implanted with a frontal screw for MMN measurement (in mm: AP 1.5; ML 0.5) and an auditory screw for ASSR measurement (in mm: AP −2.8; ML 4.2), are administered an ascending dose of psilocybin. As the mice have been tested with the MMN-ASSR protocol, they are not further habituated prior to psilocybin testing. The ascending dose protocol is summarized below and in FIG. 1: • Week 1: Day 1: Saline, Day 2: Vehicle • Week 2: Day 1:Saline, Day 2: Low Dose • Week 3: Day 1: Saline, Day 2: Medium Dose • Week 4: Day 1: Saline, Day 2: High Dose
In particular, on Day 1, animals are subcutaneously administered saline at t=−15 minutes prior to recording start. […]
(§3) The ongoing behavior (e.g., speed, total number of grooming bouts, elongation factor, distance traveled, head bobbing, etc.) of each mouse is assessed over each daily recording session (e.g., see FIG. 3). […] The amplitude of the standard and deviant waveforms are also calculated. […] The ASSR is recorded as the average amplitude of both Evoked Power and Phase Locking Factor at each frequency (20 Hz, 30 Hz, 40 Hz, and 8 Hz) for control (saline) and compound (psilocybin). The difference between the control and compound recording for Evoked Power (e.g., see FIG. 4A and FIG. 4B) and Phase Locking Factor (e.g., see FIG. 5A and FIG. 5B) is determined. […]

[3] = Blood plasma levels of psilocin over time in rats dosed with psilocybin; format: in vivo; settings: psilocybin 0.05 mg/kg, after 30 mins
[4] = system: out-bred Long Evans rats; assay: 5CSRTT with long 10 s ITI, premature (PREM) and perseverative (PSV) responses; format: in vivo; settings: 24 rats, 0.05 mg/kg S.C., p=0.05, t-test
Excerpt: (§4) The 5CSRTT involves evaluating test subject response to a brief visual stimulus (Higgins, Guy & Silenieks, Leonardo. (2017). Rodent Test of Attention and Impulsivity: The 5-Choice Serial Reaction Time Task: The 5-Choice Serial Reaction Time Task. 10.1002/cpph.27). Animals are trained to make a nose-poke response to a stimulus location in order to collect a food reward. The task allows the experimenter to measure animal performance in multiple domains including: • Attention • Impulsivity • Perseveration • Speed of response
(§5) A strength of the test is its flexible configuration to challenge test subjects: • Standard test conditions (0.75s stimulus duration (SD), 5s inter-trial interval (ITI), 100 trials) • Multiple short stimulus duration (mSD) (0.03-1s SD) • Fixed long ITI (5 s vs. 10 s ITI) • Multiple ultrashort ITI (2-5s ITI) • Extended 250 trials
When this population is segmented into tertiles according to performance based on accuracy (% correct, calculated as #correct/(#correct+#incorrect)*100), the lowest performing tertile (N=8) are considered to be low attentive and potentially representative of a low attentive endophenotype of depression (FIG. 26A). Low attentive rats also score poorly on % hit (FIG. 26B) and have a slower response speed (FIG. 26D). […] Asterisk (*) indicates statistical significance vs. vehicle. […]

[5] = system: mice; assay: Mismatch Negativity (MMN) EEG test, ascending dose protocol; format: in vivo; settings: ascending low, medium, high dose, frontal cortex EEG recording (FIG. 6A, 6B)
Protocol: as §2
Each animal is administered the same compound and dose each day (e.g., saline on day 1, vehicle or compound on day 2). […]
as §3

[6] = cited from earlier work
[7] = system: out-bred Long Evans rats; assay: 5-choice serial reaction time task (5CSRTT), standard conditions, 5 s ITI; format: in vivo
Protocol: as §1, §4, §5
Asterisk (*) indicates statistical significance vs. vehicle. (FIG. 23A).
When this population is segmented into tertiles according to performance based on accuracy (% correct, calculated as #correct/(#correct+#incorrect)*100), the lowest performing tertile (N=8) are considered to be low attentive and potentially representative of a low attentive endophenotype of depression (FIG. 26A). Low attentive rats also score poorly on % hit (FIG. 26B) and have a slower response speed (FIG. 26D). […] Asterisk (*) indicates statistical significance vs. vehicle. […] Using a longer duration between stimulus and reward, the 5CSRTT study measures premature (PREM) and perseverant (PSV) responses. PREM/PSV responses were increased by increasing the ITI from 5s (baseline) to 10s (test condition). […] Both PREM and PSV behaviors are examples of executive cognitive function, likely involving areas of the prefrontal cortex, a brain region rich in 5-HT2A receptors.

[8] = 24 rats, standard conditions, 5 s ITI

## CN(C)CCc1c[nH]c2cccc(OP(=O)(O)O)c12 [psilocybin, 4-phosphoryloxy-N,N-dimethyltryptamine]
[1]; entire study population of 36 rats, 0.05, 0.1 and 0.2 mg/kg S.C.
  number of lever presses or break points (rewards earned): None of these doses were observed to cause obvious changes
[1]; high responder subgroup (12 rats), 0.05-0.2 mg/kg S.C.
  response in PR test: no effect on response
[1]; low responder subgroup (12 rats), 0.05 mg/kg S.C., 0.05 mg/kg
  food responding (lever presses, break point) in PR test: an increase in food responding; also recorded: Significant improvements
[1]; low responder subgroup (12 rats), 0.1 mg/kg S.C.
  food responding in PR test: did not produce an increase in food responding
[2]
  general brain activity (ongoing spectral power, average PSD): higher dose corresponds with a decrease in general brain activity
[3]
  Cmax psilocin: 6+2 ng/ml
[4]
  PREM and PSV responses: increase
[5]
  MMN: difference between the standard tone waveform and the deviant tone waveform: larger difference between the standard tone waveform and the deviant form waveform with higher doses
[6]; human subjects
  doses at which about half of the subjects experience some negative emotions or acute psychological distress: ≥ 30 mg
[6]; human subjects, equals 0.30-0.45 mg/kg
  doses at which the majority of side effects reported in the literature have occurred: 20 to 30 mg
[6]; human subjects, reported in the literature
  threshold dose where mild hallucinogenic activity begins to occur in about half of the subjects: 10 mg
[6]; people, after taking the drug
  onset of physical symptoms (dizziness, nausea, vomiting, headaches, increased pulse and blood pressure etc.): 20 to 30 min
[6]; people
  duration of physical symptoms (dizziness, nausea, vomiting, headaches, increased pulse and blood pressure etc.): up to 6 hours
[6]; people, higher doses, most find symptoms gone by 6 hours after ingestion
  duration of psychedelic symptoms (distorted perception, mood changes): up to 12 hours
[7]; 24 rats, 0.05 mg/kg S.C., 75s SD, 5S ITI, 100 trials, vs. vehicle
  pro-cognitive effect measured as % hit: increased (p=0.05, t-test) pro-cognitive effect
[7]; 24 rats, 0.05 mg/kg S.C., standard conditions, 5 s ITI
  procognitive effect measured as % correct: slight non-significant increase
[7]; [8]
  performance: response speed, number of trials completed: no effect on response speed, or number of trials completed
  premature or perseverative responses: no effect on premature or perseverative responses
[7]; PR and 5CSRTT studies together, 0.05-0.2 mg/kg (PR), 0.05-0.1 mg/kg S.C. (5CSRTT)
  detrimental effects on performance (motivation, motor control, attention, response speed): no detrimental effects
[7]; low attentive cohort, 0.05 mg/kg, vs. vehicle, 0.05 mg/kg
  response speed: increased response speed; also recorded: Significant improvements
[7]; low attentive subgroup (lowest tertile, N=8), 0.05 and 0.1 mg/kg, vs. vehicle
  effect on accuracy (% correct and % hit): strongly evident; also recorded: Significant improvements
